Assay results from ChEMBL document CHEMBL6114958, “Progress in the study of anti-Alzheimer's disease activity of pyrimidine-containing bioactive molecules” (Eur J Med Chem, 2025).

How the values were obtained:
Acetylcholinesterase [1] = molecular target: T1, Acetylcholinesterase (Electrophorus electricus, UniProt O42275); assay: Inhibition of electric eel AChE using ACTI as substrate measured after 30 mins by spectrometric analysis
Histone deacetylase 2 = Histone deacetylase 2 (Homo sapiens, UniProt Q92769); assay: Inhibition of HDAC2 (unknown origin)
[2] = molecular target: High affinity cGMP-specific 3',5'-cyclic phosphodiesterase 9A (Homo sapiens, UniProt O76083); assay: Inhibition of PDE9 (unknown origin)
[3] = molecular target: T2, Protein deacetylase HDAC6 (Homo sapiens, UniProt Q9UBN7); assay: Inhibition of HDAC6 (unknown origin)
T2 sequence (Q9UBN7 whole entry): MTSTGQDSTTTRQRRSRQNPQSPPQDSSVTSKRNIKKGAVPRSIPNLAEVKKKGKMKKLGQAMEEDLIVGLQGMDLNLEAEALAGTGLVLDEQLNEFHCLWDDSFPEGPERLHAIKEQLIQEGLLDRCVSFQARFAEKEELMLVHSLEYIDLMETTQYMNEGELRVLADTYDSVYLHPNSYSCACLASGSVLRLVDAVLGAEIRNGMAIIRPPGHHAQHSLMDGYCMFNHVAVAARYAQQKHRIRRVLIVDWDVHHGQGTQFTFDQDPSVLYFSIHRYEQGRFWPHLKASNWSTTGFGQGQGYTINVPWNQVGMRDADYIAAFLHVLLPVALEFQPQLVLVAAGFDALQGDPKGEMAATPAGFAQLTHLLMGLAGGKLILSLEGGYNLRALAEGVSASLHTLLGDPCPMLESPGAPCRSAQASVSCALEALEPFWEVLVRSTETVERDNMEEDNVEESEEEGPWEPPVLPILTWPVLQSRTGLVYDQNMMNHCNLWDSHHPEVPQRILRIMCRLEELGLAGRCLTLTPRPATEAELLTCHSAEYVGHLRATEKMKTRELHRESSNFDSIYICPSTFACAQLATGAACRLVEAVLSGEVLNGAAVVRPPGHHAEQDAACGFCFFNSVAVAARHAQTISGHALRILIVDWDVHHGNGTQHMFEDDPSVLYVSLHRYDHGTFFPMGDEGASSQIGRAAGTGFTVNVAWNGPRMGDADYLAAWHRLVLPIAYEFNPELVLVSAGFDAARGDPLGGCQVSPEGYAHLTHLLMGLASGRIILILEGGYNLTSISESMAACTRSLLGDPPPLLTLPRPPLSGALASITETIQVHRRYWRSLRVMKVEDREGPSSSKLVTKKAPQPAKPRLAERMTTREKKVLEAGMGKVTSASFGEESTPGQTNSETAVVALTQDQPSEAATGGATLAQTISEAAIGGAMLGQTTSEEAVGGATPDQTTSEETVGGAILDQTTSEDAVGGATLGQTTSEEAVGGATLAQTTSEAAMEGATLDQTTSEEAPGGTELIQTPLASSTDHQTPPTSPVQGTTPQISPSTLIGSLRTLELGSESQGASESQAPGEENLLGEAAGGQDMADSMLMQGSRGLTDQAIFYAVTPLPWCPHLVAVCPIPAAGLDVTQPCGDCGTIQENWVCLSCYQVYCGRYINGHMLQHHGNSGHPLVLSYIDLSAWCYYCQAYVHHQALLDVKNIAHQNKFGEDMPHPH

Histone deacetylase 1 = Histone deacetylase 1 (Homo sapiens, UniProt Q13547); assay: Inhibition of HDAC1 (unknown origin)
Beta-secretase 1 = Beta-secretase 1 (Homo sapiens, UniProt P56817); assay: Inhibition of BACE1 (unknown origin)
Acetylcholinesterase [4] = molecular target: T3, Acetylcholinesterase (Homo sapiens, UniProt P22303); assay: Inhibition of recombinant human AChE using acetylthiocholine iodide as substrate by Ellman's method
Cholinesterase [5] = molecular target: Cholinesterase (Equus caballus, UniProt P81908); assay: Inhibition of equine serum BChE using butyrylthiocholine iodide measured after 25 mins by Ellman's spectrophotometric method
[6] = molecular target: T4, Amine oxidase [flavin-containing] B (Homo sapiens, UniProt P27338); assay: Inhibition of recombinant human MAO-B assessed as fluorescence measured after 30 mins by Amplex Red reagent assay
T4 sequence (P27338 whole entry): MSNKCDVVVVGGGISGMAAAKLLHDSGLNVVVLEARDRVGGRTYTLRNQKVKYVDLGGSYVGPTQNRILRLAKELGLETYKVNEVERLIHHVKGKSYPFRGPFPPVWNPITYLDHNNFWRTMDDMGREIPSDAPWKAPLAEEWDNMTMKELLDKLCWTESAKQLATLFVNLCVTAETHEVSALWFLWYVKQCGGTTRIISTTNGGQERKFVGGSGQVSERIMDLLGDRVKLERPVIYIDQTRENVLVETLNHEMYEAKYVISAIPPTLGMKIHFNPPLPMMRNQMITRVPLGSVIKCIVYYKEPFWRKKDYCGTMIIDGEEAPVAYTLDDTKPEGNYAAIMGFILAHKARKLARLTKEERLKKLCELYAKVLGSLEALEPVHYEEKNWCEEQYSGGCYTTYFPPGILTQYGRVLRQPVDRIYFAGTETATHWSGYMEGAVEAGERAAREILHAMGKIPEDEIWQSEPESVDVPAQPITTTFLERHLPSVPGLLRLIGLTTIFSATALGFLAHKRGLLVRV

[7] = molecular target: T5, Amine oxidase [flavin-containing] A (Homo sapiens, UniProt P21397); assay: Inhibition of recombinant human MAO-A assessed as fluorescence measured after 30 mins by Amplex Red reagent assay
T5 sequence (P21397 whole entry): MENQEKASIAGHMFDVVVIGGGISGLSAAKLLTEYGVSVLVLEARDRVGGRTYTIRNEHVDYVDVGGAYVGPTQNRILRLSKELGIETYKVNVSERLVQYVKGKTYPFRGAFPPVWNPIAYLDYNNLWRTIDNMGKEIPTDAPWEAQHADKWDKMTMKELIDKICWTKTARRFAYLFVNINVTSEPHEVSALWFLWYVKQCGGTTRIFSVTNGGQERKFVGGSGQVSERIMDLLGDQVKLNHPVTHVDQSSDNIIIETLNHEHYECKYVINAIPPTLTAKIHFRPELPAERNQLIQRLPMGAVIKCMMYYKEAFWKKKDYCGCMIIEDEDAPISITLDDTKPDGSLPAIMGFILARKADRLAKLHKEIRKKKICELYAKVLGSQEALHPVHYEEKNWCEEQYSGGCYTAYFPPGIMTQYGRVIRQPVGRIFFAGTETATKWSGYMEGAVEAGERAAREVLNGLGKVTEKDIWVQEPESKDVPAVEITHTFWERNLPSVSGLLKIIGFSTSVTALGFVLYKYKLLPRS

Acetylcholinesterase [8] = molecular target: T3, Acetylcholinesterase; assay: Inhibition of Acetylcholinesterase (unknown origin) activity measured after 15 mins by Amplex Red reagent assay
Acetylcholinesterase [9] = molecular target: T3, Acetylcholinesterase; assay: Inhibition of human AChE by Ellman's method
Acetylcholinesterase [10] = molecular target: T3, Acetylcholinesterase; assay: Inhibition of AChE (unknown origin) using acetylthiocholine iodide as substrate by Ellman's method
Cholinesterase [11] = molecular target: T6, Cholinesterase (Homo sapiens, UniProt P06276); assay: Inhibition of human BChE by Ellman's method
[12] = molecular target: Acetylcholinesterase (Electrophorus electricus) (UniProt O42275); assay: Inhibition of electric eel AChE using acetylthiocholine as substrate at 9 uM by Ellman's spectrophotometric method relative to control
Cholinesterase [13] = molecular target: T6, Cholinesterase; assay: Inhibition of BChE (unknown origin)
Acetylcholinesterase [14] = molecular target: T3, Acetylcholinesterase; assay: Inhibition of AChE (unknown origin)
[15] = molecular target: T4, Amine oxidase [flavin-containing] B; assay: Inhibition of human MAO-B
[16] = molecular target: T5, Amine oxidase [flavin-containing] A; assay: Inhibition of human MAO-A
Acetylcholinesterase [17] = molecular target: T1, Acetylcholinesterase; assay: Inhibition of electric eel AChE
Cholinesterase [18] = molecular target: T6, Cholinesterase; assay: Inhibition of BChE (unknown origin) using butyrylthiocholine iodide as substrate by Ellman's method
[19] = Inhibition of Cysteine asparaginase (unknown origin); design: species or system Homo sapiens
[20] = Inhibition of Calcium channel (unknown origin); design: species or system Homo sapiens

T1 sequence (O42275 whole entry): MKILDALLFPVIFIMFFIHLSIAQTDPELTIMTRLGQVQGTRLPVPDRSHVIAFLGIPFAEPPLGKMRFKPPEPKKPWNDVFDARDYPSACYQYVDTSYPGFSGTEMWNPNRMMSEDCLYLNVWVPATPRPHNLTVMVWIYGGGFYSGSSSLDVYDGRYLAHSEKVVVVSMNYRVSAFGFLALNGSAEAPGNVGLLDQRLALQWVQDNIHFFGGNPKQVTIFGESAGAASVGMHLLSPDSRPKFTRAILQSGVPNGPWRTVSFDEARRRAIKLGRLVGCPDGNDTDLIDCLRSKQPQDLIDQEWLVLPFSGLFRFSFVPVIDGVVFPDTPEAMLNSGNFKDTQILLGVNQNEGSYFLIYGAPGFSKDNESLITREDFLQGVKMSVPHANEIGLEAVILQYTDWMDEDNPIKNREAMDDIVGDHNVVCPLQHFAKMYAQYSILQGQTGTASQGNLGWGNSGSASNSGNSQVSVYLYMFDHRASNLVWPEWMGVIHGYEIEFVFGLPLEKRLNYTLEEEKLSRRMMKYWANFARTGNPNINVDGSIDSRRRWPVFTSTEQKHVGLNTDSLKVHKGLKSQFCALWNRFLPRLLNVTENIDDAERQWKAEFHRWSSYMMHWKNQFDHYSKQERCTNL
T3 sequence (P22303 whole entry): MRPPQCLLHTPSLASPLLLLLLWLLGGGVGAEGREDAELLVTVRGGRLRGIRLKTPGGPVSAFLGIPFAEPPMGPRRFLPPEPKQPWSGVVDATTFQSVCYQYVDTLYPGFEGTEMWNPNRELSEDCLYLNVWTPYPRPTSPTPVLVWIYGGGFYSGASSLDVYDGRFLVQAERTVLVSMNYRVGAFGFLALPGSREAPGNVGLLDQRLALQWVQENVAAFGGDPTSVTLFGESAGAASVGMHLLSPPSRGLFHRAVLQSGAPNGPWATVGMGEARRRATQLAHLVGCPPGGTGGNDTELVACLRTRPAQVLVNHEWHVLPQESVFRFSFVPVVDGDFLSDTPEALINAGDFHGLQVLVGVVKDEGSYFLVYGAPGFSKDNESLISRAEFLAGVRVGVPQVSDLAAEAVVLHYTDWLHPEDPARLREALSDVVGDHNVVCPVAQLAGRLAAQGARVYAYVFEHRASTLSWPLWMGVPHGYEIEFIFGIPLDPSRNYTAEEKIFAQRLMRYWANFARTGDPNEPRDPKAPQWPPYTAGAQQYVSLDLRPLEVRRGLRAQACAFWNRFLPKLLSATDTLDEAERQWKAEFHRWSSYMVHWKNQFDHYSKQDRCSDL
Histone deacetylase 1, sequence (Q13547 whole entry): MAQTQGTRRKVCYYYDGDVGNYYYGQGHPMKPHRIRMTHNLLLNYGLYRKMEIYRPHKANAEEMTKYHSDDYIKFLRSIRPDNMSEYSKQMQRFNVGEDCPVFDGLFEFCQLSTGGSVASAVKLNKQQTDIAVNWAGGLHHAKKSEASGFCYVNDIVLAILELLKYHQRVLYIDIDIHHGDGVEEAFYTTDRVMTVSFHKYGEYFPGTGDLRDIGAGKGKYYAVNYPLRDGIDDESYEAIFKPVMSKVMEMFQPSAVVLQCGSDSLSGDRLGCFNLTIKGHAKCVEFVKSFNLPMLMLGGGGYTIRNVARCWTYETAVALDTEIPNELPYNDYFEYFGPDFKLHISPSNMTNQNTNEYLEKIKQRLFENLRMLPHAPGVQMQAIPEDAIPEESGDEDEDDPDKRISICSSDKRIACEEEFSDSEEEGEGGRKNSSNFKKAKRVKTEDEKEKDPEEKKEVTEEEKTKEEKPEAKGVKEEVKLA
High affinity cGMP-specific 3',5'-cyclic phosphodiesterase 9A, sequence (O76083 whole entry): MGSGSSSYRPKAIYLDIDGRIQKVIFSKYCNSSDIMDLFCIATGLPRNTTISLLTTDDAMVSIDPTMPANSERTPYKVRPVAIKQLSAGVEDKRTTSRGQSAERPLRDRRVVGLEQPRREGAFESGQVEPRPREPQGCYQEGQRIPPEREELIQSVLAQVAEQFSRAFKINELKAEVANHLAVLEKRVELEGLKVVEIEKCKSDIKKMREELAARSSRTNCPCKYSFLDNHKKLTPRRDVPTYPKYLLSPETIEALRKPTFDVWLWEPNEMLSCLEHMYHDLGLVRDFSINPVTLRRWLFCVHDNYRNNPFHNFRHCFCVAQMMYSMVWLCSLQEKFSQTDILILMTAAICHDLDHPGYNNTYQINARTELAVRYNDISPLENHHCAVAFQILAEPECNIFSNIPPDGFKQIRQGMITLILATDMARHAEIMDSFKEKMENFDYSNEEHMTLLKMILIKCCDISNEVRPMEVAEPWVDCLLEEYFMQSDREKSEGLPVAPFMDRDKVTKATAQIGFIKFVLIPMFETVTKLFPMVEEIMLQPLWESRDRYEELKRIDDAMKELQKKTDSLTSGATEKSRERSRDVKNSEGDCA
T6 sequence (P06276 whole entry): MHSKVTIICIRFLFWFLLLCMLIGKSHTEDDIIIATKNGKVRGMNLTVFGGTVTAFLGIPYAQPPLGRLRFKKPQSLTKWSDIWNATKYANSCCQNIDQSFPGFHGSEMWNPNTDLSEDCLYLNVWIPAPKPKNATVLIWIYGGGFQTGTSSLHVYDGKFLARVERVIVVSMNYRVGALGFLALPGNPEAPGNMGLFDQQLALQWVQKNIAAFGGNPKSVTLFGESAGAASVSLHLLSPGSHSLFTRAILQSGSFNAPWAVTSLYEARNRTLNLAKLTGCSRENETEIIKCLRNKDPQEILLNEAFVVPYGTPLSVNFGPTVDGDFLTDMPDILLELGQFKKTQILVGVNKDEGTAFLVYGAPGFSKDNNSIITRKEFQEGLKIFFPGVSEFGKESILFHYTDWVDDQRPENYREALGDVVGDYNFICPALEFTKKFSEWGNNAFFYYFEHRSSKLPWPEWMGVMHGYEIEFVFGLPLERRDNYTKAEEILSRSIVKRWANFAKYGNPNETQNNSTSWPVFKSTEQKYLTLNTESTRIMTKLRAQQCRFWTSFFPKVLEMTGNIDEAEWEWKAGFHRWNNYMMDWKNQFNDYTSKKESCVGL
Histone deacetylase 2, sequence (Q92769 whole entry): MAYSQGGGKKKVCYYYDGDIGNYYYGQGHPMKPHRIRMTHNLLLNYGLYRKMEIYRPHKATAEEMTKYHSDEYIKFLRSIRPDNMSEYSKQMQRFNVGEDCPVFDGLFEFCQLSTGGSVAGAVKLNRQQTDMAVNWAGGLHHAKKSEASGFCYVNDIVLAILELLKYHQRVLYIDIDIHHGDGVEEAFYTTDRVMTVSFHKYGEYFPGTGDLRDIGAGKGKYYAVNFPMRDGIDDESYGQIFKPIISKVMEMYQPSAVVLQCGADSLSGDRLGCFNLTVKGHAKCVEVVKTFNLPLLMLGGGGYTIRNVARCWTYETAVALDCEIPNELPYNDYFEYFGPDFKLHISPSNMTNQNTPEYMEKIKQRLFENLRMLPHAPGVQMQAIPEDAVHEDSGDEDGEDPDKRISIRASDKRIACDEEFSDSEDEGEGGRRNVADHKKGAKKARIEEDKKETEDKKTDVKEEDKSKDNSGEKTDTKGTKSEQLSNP
Cholinesterase (Equus caballus, UniProt P81908), sequence (P81908 whole entry): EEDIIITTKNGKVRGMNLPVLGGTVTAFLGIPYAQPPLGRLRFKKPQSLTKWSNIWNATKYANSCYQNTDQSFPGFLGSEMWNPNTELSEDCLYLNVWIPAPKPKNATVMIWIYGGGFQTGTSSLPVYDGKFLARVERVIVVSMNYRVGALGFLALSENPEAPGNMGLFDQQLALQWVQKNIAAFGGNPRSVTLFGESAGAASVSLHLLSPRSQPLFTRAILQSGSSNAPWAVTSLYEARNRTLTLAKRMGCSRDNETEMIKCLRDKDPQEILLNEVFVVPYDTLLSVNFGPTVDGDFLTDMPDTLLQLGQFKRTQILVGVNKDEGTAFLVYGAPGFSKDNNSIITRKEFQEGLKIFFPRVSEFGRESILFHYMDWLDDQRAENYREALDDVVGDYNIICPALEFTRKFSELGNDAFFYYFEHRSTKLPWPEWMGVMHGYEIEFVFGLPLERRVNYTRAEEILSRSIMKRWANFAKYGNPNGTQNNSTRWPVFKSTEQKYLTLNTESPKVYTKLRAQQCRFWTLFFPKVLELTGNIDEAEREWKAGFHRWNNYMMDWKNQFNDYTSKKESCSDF
Acetylcholinesterase (Electrophorus electricus), sequence (O42275 24-633 limits assumed): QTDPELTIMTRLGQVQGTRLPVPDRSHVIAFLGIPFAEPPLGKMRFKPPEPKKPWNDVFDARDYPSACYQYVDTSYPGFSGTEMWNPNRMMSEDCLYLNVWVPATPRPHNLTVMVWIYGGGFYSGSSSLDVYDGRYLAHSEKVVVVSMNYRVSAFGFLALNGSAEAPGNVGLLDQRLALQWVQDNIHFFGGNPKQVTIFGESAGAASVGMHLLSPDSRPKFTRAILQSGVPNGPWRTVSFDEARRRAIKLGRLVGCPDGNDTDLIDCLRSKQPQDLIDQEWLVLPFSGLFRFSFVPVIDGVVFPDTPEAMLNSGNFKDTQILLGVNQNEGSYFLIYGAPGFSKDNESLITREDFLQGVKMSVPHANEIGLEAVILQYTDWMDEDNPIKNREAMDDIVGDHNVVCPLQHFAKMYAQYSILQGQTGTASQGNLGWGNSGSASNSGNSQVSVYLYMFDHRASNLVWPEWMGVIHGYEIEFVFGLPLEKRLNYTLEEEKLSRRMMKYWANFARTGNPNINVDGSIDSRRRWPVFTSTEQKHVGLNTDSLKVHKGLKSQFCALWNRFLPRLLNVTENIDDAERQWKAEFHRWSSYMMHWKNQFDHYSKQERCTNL

Question: Which IC50 (Acetylcholinesterase [1]) does the source give for COc1cccc(C2C3=C(CCCC3=O)Oc3nc(C)[nH]c(=O)c32)c1 (stereo not drawn) here?
Answer: 6500 nM

Question: Which IC50 (Histone deacetylase 2) does the source give for CC(c1nc2c(cnn2C2CCCC2)c(=O)[nH]1)N1CC(Cc2ccc(C(=O)Nc3ccccc3N)cc2)C1 (stereo not drawn) here?
Answer: 545 nM

Question: And the IC50 [2]?
Answer: 57 nM

Question: What about the IC50 [3] of the same compound?
Answer: > 10000 nM

Question: And the IC50 (Histone deacetylase 1)?
Answer: 99 nM

Question: With COc1cccc(-c2csc(NC(=O)CSc3nc(N)cc(N)n3)n2)c1 as the compound, how does the IC50 (Beta-secretase 1) read?
Answer: 1400 nM

Question: Which IC50 (Acetylcholinesterase [4]) does the source give for CN(CCCOc1ccc([N+](=O)[O-])cc1)C(=O)c1cnc(N2CCN(c3ccc(C(=O)N4CCOCC4)cc3[N+](=O)[O-])CC2)nc1 here?
Answer: 900 nM

Question: For COC(=O)/C1=C/N(C(C)C)CCc2nc(-c3ccccc3)[nH]c(=O)c2C1, which IC50 (Cholinesterase [5]) is on record?
Answer: 1300 nM

Question: What does the source list for C[C@@H]1CN(Cc2ccc(CC(=O)CNO)cc2)C[C@H]1c1nc2c(cnn2C2CCOCC2)c(=O)[nH]1?
Answer: IC50 (Histone deacetylase 2): 1250 nM; IC50 [2]: 8 nM; IC50 [3]: 508 nM; IC50 (Histone deacetylase 1): 138 nM

Question: With C#CCOc1ccc(-c2cc(-c3ccc(OCCN4CCOCC4)cc3)nc(N)n2)cc1 as the compound, how does the IC50 [6] read?
Answer: > 50000 nM

Question: What about the IC50 [7] of the same compound?
Answer: 18 nM

Question: And the IC50 (Acetylcholinesterase [8])?
Answer: 30500 nM

Question: Which IC50 (Acetylcholinesterase [9]) does the source give for Cc1ccc(O)c(CNc2c(N)n(C)c(=O)n(C)c2=O)c1 here?
Answer: 4.65 nM

Question: Which IC50 (Acetylcholinesterase [10]) does the source give for COc1cccc(-c2nc(SCCCSc3nc(N)c(C#N)c(-c4cccc(OC)c4)n3)nc(N)c2C#N)c1 here?
Answer: 5720 nM

Question: For N#CC1C(N)N2CCCNC2C(C#N)C12C(=O)Nc1ccc(Br)cc12 (stereo not drawn), which IC50 (Cholinesterase [11]) is on record?
Answer: 17500 nM

Question: For CC(c1nc2c(cnn2C2CCCC2)c(=O)[nH]1)C1CC(Cc2ccc(C(=O)NO)cc2)C1 (stereo not drawn), which IC50 (Histone deacetylase 2) is on record?
Answer: 3530 nM

Question: And the IC50 [2]?
Answer: 107 nM

Question: And the IC50 [3]?
Answer: 40 nM

Question: What about the IC50 (Histone deacetylase 1) of the same compound?
Answer: 593 nM

Question: For O=C(NCCCCCCNc1ncccn1)c1ccccc1, which inhibition [12] is on record?
Answer: 2.5%

Question: For CCN(CCCCCn1c(C)cc(=O)n(CCCCCN(CC)Cc2ccccc2C#N)c1=O)Cc1ccccc1C#N, which IC50 (Acetylcholinesterase [4]) is on record?
Answer: 7300 nM

Question: Which IC50 (Cholinesterase [13]) does the source give for Cc1cccc(-c2nccc(N3CCOCC3)n2)c1 here?
Answer: 2500 nM

Question: What about the IC50 (Acetylcholinesterase [14]) of the same compound?
Answer: 430 nM

Question: Which IC50 [6] does the source give for C#CCNc1ccc(-c2cc(-c3ccc(OCCN4CCOCC4)cc3)nc(N)n2)cc1 here?
Answer: 40 nM

Question: What about the IC50 [7] of the same compound?
Answer: 9940 nM

Question: And the IC50 (Acetylcholinesterase [8])?
Answer: 7210 nM

Question: Which IC50 [15] does the source give for C#CCCCOc1ccc(-c2cc(-c3ccc(OCCN4CCOCC4)cc3)nc(-c3ccccc3)n2)cc1 here?
Answer: 8600 nM

Question: And the IC50 [16]?
Answer: 740 nM

Question: What about the IC50 (Acetylcholinesterase [17]) of the same compound?
Answer: 17500 nM

Question: For CCN(CCCCCn1c(C)cc(=O)n(CCCCCN(CC)Cc2cccc(C(=O)OC)c2)c1=O)Cc1cccc(C(=O)OC)c1, which IC50 (Acetylcholinesterase [4]) is on record?
Answer: 290 nM

Question: For C#CCCCOc1ccc(-c2cc(-c3ccc(OCCN4CCCC4)cc3)nc(-c3ccccc3)n2)cc1, which IC50 [15] is on record?
Answer: > 50000 nM

Question: And the IC50 [16]?
Answer: 750 nM

Question: And the IC50 (Acetylcholinesterase [17])?
Answer: 2190 nM

Question: Which IC50 (Acetylcholinesterase [14]) does the source give for CCOC(=O)C1=C(C)N=C2SC(c3ccc([N+](=O)[O-])cc3)=NN2C1c1ccc(C=O)cn1 (stereo not drawn) here?
Answer: 82 nM

Question: With c1ccc(CNCCCCCCNc2ncccn2)cc1 as the compound, how does the inhibition [12] read?
Answer: 92.9%

Question: With N#Cc1c(N)nc(SCCCSc2nc(N)c(C#N)c(-c3ccc(Br)cc3)n2)nc1-c1ccc(Br)cc1 as the compound, how does the IC50 (Cholinesterase [18]) read?
Answer: 12200 nM

Question: With CC1(C)CC(=O)c2c(N)nc(Nc3ccccc3)nc2C1 as the compound, how does the IC50 [19] read?
Answer: 22 nM

Question: For CCOC(=O)C1=C(C)N(CCC2CCN(Cc3ccccc3)CC2)C(=O)NC1c1coc2c(Cl)cc(Cl)cc2c1=O (stereo not drawn), which IC50 [20] is on record?
Answer: 1400 nM

Question: For CCN(CC)CCCNC1NC(c2ccccc2)=NC2=C1C/C(C(=O)OC)=C\N(C(C)C)CC2 (stereo not drawn), which IC50 (Cholinesterase [5]) is on record?
Answer: 105 nM

Question: With N#CC1C(N)N2CCCNC2C(C#N)C12C(=O)Nc1ccccc12 (stereo not drawn) as the compound, how does the IC50 (Acetylcholinesterase [9]) read?
Answer: 4040 nM
